Results published in patent US10538561B2, “Peptide for treating inflammatory diseases” (priority 2015, dated 2020).

Key:
[1] = tested on: Imiquimod (IMQ) induced psoriasis; test: Imiquimod (IMQ) induced psoriasis model; type: in vivo, BALB/C mice
Description: The Experiment was carried out in Imiquimod (IMQ) induced psoriasis model in mice. […] […] There was a trend in animals treated with IS-181 through s.c. in ear thickness (life phase), punch biopsy, spleen weight and histopathology. […] Thus, […] In the view of this, it may be worth to explore the potency of the peptide for the diseases where TNFα playing central role in pathogenesis.

[2] = tested on: Caspase-3 enzyme; test: Caspase-3 assay; type: cell-based, Human; conditions: HaCaT, 48 h
Description: Cell lines: Human Keratinocytes (HaCaT); Test Item (TI): IS 181; Treatment regimen: Multiple additions (2)—48 hours; Concentration range: 100 μg/ml to 5000 μg/ml (Duplicate wells); Sera Condition: Medium containing 1% FBS. […] Cells were lysed and protein was estimated. The above lysates were processed further for Caspase-3 enzyme activity assay using colorimetric based method. Percentage induction of Caspase-3 enzyme activation with respect to untreated; Positive control: Anthralin. IS 181 led to induction of Caspase-3 enzyme activation in HaCaT cells at all the concentrations tested except at 100 μg/ml. […] (FIGS. 7A-7B)

[3] = target: T1, JAK3 (Homo sapiens, UniProt P52333); test: Biochemical kinase assay JAK3
T1 sequence (P52333 1-1124): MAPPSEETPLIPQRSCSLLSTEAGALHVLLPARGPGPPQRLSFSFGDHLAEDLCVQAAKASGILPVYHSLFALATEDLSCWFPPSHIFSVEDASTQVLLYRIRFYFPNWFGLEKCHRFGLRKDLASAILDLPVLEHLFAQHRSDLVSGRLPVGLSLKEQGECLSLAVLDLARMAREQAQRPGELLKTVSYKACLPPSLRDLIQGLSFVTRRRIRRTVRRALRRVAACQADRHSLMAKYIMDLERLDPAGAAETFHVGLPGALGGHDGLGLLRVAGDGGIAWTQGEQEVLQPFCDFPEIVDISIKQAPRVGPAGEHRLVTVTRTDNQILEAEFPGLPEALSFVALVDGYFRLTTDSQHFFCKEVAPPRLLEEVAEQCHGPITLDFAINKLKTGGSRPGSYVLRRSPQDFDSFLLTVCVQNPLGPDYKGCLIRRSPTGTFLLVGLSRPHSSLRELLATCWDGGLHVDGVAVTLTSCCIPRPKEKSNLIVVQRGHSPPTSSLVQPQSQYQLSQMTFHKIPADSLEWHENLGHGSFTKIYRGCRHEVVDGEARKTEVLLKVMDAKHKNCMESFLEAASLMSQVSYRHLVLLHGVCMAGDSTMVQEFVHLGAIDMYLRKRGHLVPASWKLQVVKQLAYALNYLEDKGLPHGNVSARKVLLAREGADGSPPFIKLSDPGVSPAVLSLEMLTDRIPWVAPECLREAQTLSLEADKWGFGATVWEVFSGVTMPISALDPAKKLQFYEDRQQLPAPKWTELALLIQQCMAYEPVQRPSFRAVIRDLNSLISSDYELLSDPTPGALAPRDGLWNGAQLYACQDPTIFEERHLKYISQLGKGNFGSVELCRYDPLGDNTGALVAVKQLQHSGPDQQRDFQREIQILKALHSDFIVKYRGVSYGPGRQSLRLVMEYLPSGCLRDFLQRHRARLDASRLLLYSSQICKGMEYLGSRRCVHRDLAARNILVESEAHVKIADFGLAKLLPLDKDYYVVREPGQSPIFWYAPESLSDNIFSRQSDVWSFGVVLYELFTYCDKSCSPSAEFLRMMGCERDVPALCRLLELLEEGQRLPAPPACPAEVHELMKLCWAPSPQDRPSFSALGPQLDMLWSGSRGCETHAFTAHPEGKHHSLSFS
Description: Test system: cell free assays; test items: IS181; concentrations tested: 1 ng/ml-5000 μg/ml; Kinases: a) Cell free assays: EGFR (ErbB1); FLT1 (VEGFR1); JAK1; JAK3 MAP2K1 (MEK1); PDGFRA (PDGFR alpha); PRKCA (PKC alpha); b) cell based assay: JAK-STAT.

[4] = tested on: HaCaT (Human keratinocyte); test: LDH enzyme release assay; type: cell-based
Description: For testing Apoptosis the Human Keratinocytes (HaCaT) cell line has been employed. The growth conditions are DMEM containing 1% FBS. […] Test concentration range is IS181 is tested at the highest (Qualitative analysis) effective concentrations selected on the basis of Quantitative JC-1 assay. The method of estimation is Mitochondrial membrane depolarization by JC-1 assay (Early apoptosis), LDH enzyme release (Necrosis). Treatment regimen & time points are JC-1 assay—Single addition, 20 h; LDH assay—Single addition, 24 h; Positive control: Triton-X-100, Doxorubicin-hydrochloride
End-point: Percentage increase in LDH activity in treated cells with respect to untreated.

With “H-WVQRVVEKFLK-OH [IS181, H-Trp-Val-Gln-Arg-Val-Val-Glu-Lys-Phe-Leu-Lys-OH]” the histopathology ear thickness ([1]; 0.3 mg/kg, s.c.) was “maximum reduction in ear thickness”, the hyperkeratosis ([1]; 1.2 mg/kg i.m. and i.v.) was “reduction in hyperkeratosis” and the “reduction in IL-23 (ear homogenate) compared to disease control” value ([1]; BALB/C mice, 0.3 mg/kg) was 62.35%. The “reduction in TNFα (ear homogenate) compared to disease control” value ([1]; BALB/C mice, 0.3 mg/kg s.c.) was 24.98%, the “reduction in TNFα (ear homogenate) compared to disease control” value ([1]; BALB/C mice, 1.2 mg/kg i.m.) was 21.28% and the dorsal skin thickness ([1]; across the groups except 0.6 mg/kg s.c. and 1.2 mg/kg i.m.) was “mild reduction in dorsal skin thickness, however which was not significant”. The punch biopsy weight ([1]; across the groups except 1.2 mg/kg, i.m.) was “mild reduction in punch biopsy weight, however which was not significant”, the “IL-17A (ear homogenate)” value ([1]; across the treated groups) was “No changes in IL-17A” and the clinical score ([1]; across the treated groups) was “No substantial changes in clinical score”. The erythema index ([1]; across the treated groups) was “No changes in erythema index”, the “ear thickness (life phase) compared to disease control” value ([1]; s.c.) was “mild reduction in ear thickness” and the “edema compared to disease control” value ([1]; s.c. (1.2, 0.6 and 0.3 mg/kg)) was “reduction in edema”. For the same substance, the “inflammatory cells infiltration compared to disease control” value ([1]; s.c. (1.2, 0.6 and 0.3 mg/kg) and 1.2 mg/kg i.v.) was “reduction in inflammatory cells infiltration”, the Rete peg proliferation ([1]; s.c. (at 1.2, 0.6 and 0.3, mg/kg)) was “reduction in Rete peg proliferation” and the spleen weight ([1]; s.c. route, 1.2 mg/kg) was “maximum reduction in spleen weight, however which was not significant”. The hyperkeratosis ([1]; s.c., 0.3 mg/kg) was “maximum effect”, the “Percentage induction of caspase-3 enzyme activation with respect to untreated” value (shortened to “Percentage induction”) ([2]; 100 μg/ml) was −20.37 and the “Percentage induction” value ([2]; 500 μg/ml) was 7.41. The “Percentage induction” value ([2]; 1000 μg/ml) was 29.63, the “Percentage induction” value ([2]; 2000 μg/ml) was 50 and the inhibition at 10 µg/mL ([3]; 10 μg/ml) was 13%. It also gave an inhibition at 50 µg/mL ([3]; cell free, 50 μg/ml) of 13%, an inhibition at 100 µg/mL ([3]; cell free, 100 μg/ml) of -24% and an inhibition at 250 µg/mL ([3]; cell free, 250 μg/ml) of -72%. The inhibition at 500 µg/mL ([3]; cell free, 500 μg/ml) was -142%, the inhibition at 1000 µg/mL ([3]; cell free, 1000 μg/ml) was -198% and the “increase in LDH enzyme activity with respect to untreated” value ([4]; 750 μg/ml to 2 mg/ml) was at least 90%. The “% Increase with respect to untreated (LDH)” value (from here on “% Increase”) ([4]; 24 h, 400 μg/ml) was 26.03%, the “LDH Activity (mU/ml)” value ([4]; 24 h, 400 μg/ml) was 79.73 mU/ml and the “% Increase” value ([4]; 24 h, 475 μg/ml) was “***49.73%”. The “LDH Activity (mU/ml)” value ([4]; 24 h, 475 μg/ml) was 94.71 mU/ml, the “% Increase” value ([4]; 24 h, 500 μg/ml) was “**34.76%” and the “LDH Activity (mU/ml)” value ([4]; 24 h, 500 μg/ml) was 85.25 mU/ml. The “% Increase” value ([4]; 24 h, 750 μg/ml) was “***90.43%”, the “LDH Activity (mU/ml)” value ([4]; 24 h, 750 μg/ml) was 120.47 mU/ml and the “% Increase” value ([4]; 24 h, 1000 μg/ml) was “***116.28%”. For the same substance, the “LDH Activity (mU/ml)” value ([4]; 24 h, 1000 μg/ml) was 136.82 mU/ml, the “% Increase” value ([4]; 24 h, 2000 μg/ml) was “***119.09%” and the “LDH Activity (mU/ml)” value ([4]; 24 h, 2000 μg/ml) was 138.60 mU/ml. For the same substance, the “increase in LDH enzyme release with respect to untreated” value ([4]; 24 h, concentrations around IC50 value) was over 50%.
